Data on 59 compounds can be found in patent publication US6362369B1, “Phthalic acid diamide derivatives fluorine-containing aniline compounds as starting material, agricultural and horticultural insecticides, and a method for application of the insecticides” (Nihon Nohyaku Co., Ltd., priority 1997, dated 2002).

This assay relates to diamondback moth (Plutella xylostella). In words: Insecticidal effect on diamondback moth (Test Example 1). The format is in vivo. To be noted: for Insecticidal effect on diamondback moth (Test Example 1), judged grade: mortality judged according to the criterion shown in Test Example 1; for Insecticidal effect, Test Example 1: diamondback moth, mortality judged by criterion of Test Example 1. The procedure, abridged:
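Read-out was mortality from hatched-insect counts taken 6 days after the egg-bearing cabbage seedling was immersed, graded by set criteria. Seedlings were air-dried and kept at 25° C after treatment. Groups of 10 insects, in triplicate.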

Turning to `CC(C)NC(=O)c1cccc(Cl)c1C(=O)Nc1ccc(C=C(Br)Br)cc1` [compound 914], the “Insecticidal effect on diamondback moth (Test Example 1), judged grade” value (from here on “Insecticidal effect on diamondback moth”) is given as “A (100)”. Turning to `CC(C)NC(=O)c1cccc(Cl)c1C(=O)Nc1ccc(C=C(Cl)Cl)cc1` [compound 916], the “Insecticidal effect on diamondback moth” value is given as “A (100)”. Regarding `CC(C)NC(=O)c1cccc(I)c1C(=O)Nc1ccc(C=C(Cl)C(F)(F)F)cc1` [compound 918], the “Insecticidal effect on diamondback moth” value is on record as “A (100)”.

Regarding `CCc1cc(I)ccc1NC(=O)c1cccc(I)c1C(=O)NC(C)C` [compound 919], the “Insecticidal effect on diamondback moth” value is reported as “A (100)”. Same read-out and setting: the entry for `CCc1cc(I)ccc1NC(=O)c1c(I)cccc1C(=O)NC(C)C` [compound 920] is “A (100)”; for `CCc1ccc(Cl)c(CC)c1NC(=O)c1cccc(Cl)c1C(=O)NC(C)C` [compound 924] it is “A (100)”. `CCOCCNC(=O)c1cccc(I)c1C(=O)Nc1ccc(C(F)(F)C(F)(F)F)cc1C` [compound 984]: the “Insecticidal effect, Test Example 1” value is “A (100)”.

For `C=CCNC(=O)c1cccc(I)c1C(=O)Nc1ccc(C(F)(F)C(F)(F)F)cc1C` [compound 988], the “Insecticidal effect, Test Example 1” value is “A (100)”.

Regarding `Cc1cc(C(F)(F)C(F)(F)F)ccc1NC(=O)c1c(I)cccc1C(=O)NC1CCCC1` [compound 992], the “Insecticidal effect, Test Example 1” value is reported as “A (100)”. As to `Cc1cc(C(F)(F)C(F)(F)F)ccc1NC(=O)c1c(I)cccc1C(=O)NCC(C)C` [compound 1006], the “Insecticidal effect, Test Example 1” value is on record as “A (100)”. Consider `Cc1cc(C(F)(F)C(F)(F)F)ccc1NC(=O)c1c(I)cccc1C(=O)NC1CC1` [compound 1025], for which the “Insecticidal effect, Test Example 1” value is “A (100)”.

Take `Cc1cc(C(F)(F)C(F)(F)F)ccc1NC(=O)c1c(I)cccc1C(=O)NC(C)C(C)C` (centres unmarked) [compound 1034]: the “Insecticidal effect, Test Example 1” value was “A (100)”. For the compound `CCCNC(=O)c1cccc(I)c1C(=O)Nc1ccc(OC(F)(F)C(F)F)cc1C` [compound 1059], the “Insecticidal effect, Test Example 1” value is “A (100)”. Turning to `CC(C)(C)NC(=O)c1ccccc1C(=O)Nc1ccc2c(c1)OC(F)(F)C(F)(F)O2` [compound 1065], the “Insecticidal effect, Test Example 1” value is reported as “A (100)”.

In the case of `Cc1cc(C(F)(F)C(F)(F)F)ccc1NC(=O)c1cccc(I)c1C(=O)N1CCCCC1` [compound 1082], the “Insecticidal effect, Test Example 1” value is on record as “A (100)”. Consider `Cc1cc(C(F)(F)C(F)(F)F)ccc1NC(=O)c1cccc(I)c1C(=O)N1CCC(C)CC1` [compound 1083], for which the “Insecticidal effect, Test Example 1” value is recorded as “A (100)”. Same read-out and setting: to `CCN(CC)C(=O)c1cccc([N+](=O)[O-])c1C(=O)Nc1ccc(OC(F)(F)C(F)F)cc1C` [compound 1137] belongs “A (100)”; to `CCN(CC)C(=O)c1cccc([N+](=O)[O-])c1C(=O)Nc1ccc(OC(F)(F)F)cc1` [compound 1139], “A (100)”; to `CCN(CC)C(=O)c1c(I)cccc1C(=O)Nc1ccc2oc(-c3ccc(C(F)(F)F)cc3)nc2c1` [compound 1175], “A (100)”. In the case of `CCN(CC)C(=O)c1c(I)cccc1C(=O)Nc1ccc2nc(-c3ccccc3C(F)(F)F)oc2c1` [compound 1178], the “Insecticidal effect, Test Example 1” value is on record as “A (100)”. Same read-out and setting: to `CC(C)NC(=O)c1c(I)cccc1C(=O)Nc1ccc2nc(C(F)(F)C(F)(F)F)oc2c1` [compound 1180] belongs “A (100)”. For the compound `CC(C)(C)NC(=O)c1c(I)cccc1C(=O)Nc1ccc2nc(C(F)(F)C(F)(F)F)oc2c1` [compound 1181], the “Insecticidal effect, Test Example 1” value is “A (100)”. In the case of `CCN(CC)C(=O)c1c(I)cccc1C(=O)Nc1ccc2nc(C(F)(F)C(F)(F)F)oc2c1` [compound 1182], the “Insecticidal effect, Test Example 1” value was “A (100)”. As to `CCN(CC)C(=O)c1c(OC(F)(F)F)cccc1C(=O)Nc1ccc(C(F)(C(F)(F)F)C(F)(F)F)cc1C` [compound 1238], the “Insecticidal effect, Test Example 1” value is “A (100)”. `Cc1cc(OC(F)(F)F)ccc1NC(=O)c1cc(I)ccc1C(=O)NC(C)C` [compound 1247]: the “Insecticidal effect, Test Example 1” value is “C (89-80)”. `Cc1cc(OC(F)(F)C(F)F)ccc1NC(=O)c1cc(I)ccc1C(=O)NC(C)C` [compound 1249]: the “Insecticidal effect, Test Example 1” value is “A (100)”. Consider `Cc1cc(OC(F)(F)F)ccc1NC(=O)c1ccc(F)c(Cl)c1C(=O)NC(C)(C)C` [compound 1260], for which the “Insecticidal effect, Test Example 1” value was “A (100)”.

On to `Cc1cc(OC(F)(F)F)ccc1NC(=O)c1ccc(F)c(F)c1C(=O)NC(C)C` [compound 1283], for which the “Insecticidal effect, Test Example 1” value is on record as “A (100)”. Consider `Cc1cc(OC(F)(F)F)ccc1NC(=O)c1cc(F)c(F)cc1C(=O)NC(C)(C)C` [compound 1288], for which the “Insecticidal effect, Test Example 1” value is “A (100)”. For the compound `Cc1cc(OC(=C(C(F)(F)F)C(F)(F)F)C(F)(F)C(F)(F)F)ccc1NC(=O)c1cccc(Cl)c1C(=O)NC(C)C` [compound 1291], the “Insecticidal effect, Test Example 1” value is given as “A (100)”.

On to `Cc1cc(C(F)(F)C(F)(F)F)ccc1NC(=O)c1cccc(Cl)c1C(=O)NCCc1ccccc1` [compound 1319], for which the “Insecticidal effect, Test Example 1” value is given as “A (100)”. With `Cc1cc(C(F)(F)C(F)(F)F)ccc1NC(=O)c1c(Cl)cccc1C(=O)NC(C)c1ccccc1` (centres unmarked) [compound 1322], the “Insecticidal effect, Test Example 1” value was “A (100)”. Consider `CCCONC(=O)c1c(Cl)cccc1C(=O)Nc1ccc(C(F)(F)C(F)(F)F)cc1C` [compound 1327], for which the “Insecticidal effect, Test Example 1” value is on record as “A (100)”. Consider `CCCONC(=O)c1cccc(Cl)c1C(=O)Nc1ccc(C(F)(F)C(F)(F)F)cc1C` [compound 1328], for which the “Insecticidal effect, Test Example 1” value was “A (100)”. On to `Cc1cc(C(F)(F)C(F)(F)F)ccc1NC(=O)c1c(Cl)cccc1C(=O)NCCCc1ccccc1` [compound 1332], for which the “Insecticidal effect, Test Example 1” value was “A (100)”. As to `Cc1ccccc1CNC(=O)c1cccc(Cl)c1C(=O)Nc1ccc(C(F)(F)C(F)(F)F)cc1C` [compound 1338], the “Insecticidal effect, Test Example 1” value is reported as “A (100)”. As to `Cc1ccc(CNC(=O)c2c(Cl)cccc2C(=O)Nc2ccc(C(F)(F)C(F)(F)F)cc2C)cc1` [compound 1341], the “Insecticidal effect, Test Example 1” value is listed as “A (100)”. Still for that read-out and setting: to `Cc1ccc(CNC(=O)c2cccc(Cl)c2C(=O)Nc2ccc(C(F)(F)C(F)(F)F)cc2C)cc1` [compound 1342] belongs “A (100)”; to `COc1cccc(CNC(=O)c2c(Cl)cccc2C(=O)Nc2ccc(C(F)(F)C(F)(F)F)cc2C)c1` [compound 1345], “A (100)”; to `COc1cccc(CNC(=O)c2cccc(Cl)c2C(=O)Nc2ccc(C(F)(F)C(F)(F)F)cc2C)c1` [compound 1346], “A (100)”. Still for that read-out and setting: to `COc1ccc(CNC(=O)c2c(Cl)cccc2C(=O)Nc2ccc(C(F)(F)C(F)(F)F)cc2C)cc1` [compound 1347] belongs “A (100)”; to `COc1ccc(CNC(=O)c2cccc(Cl)c2C(=O)Nc2ccc(C(F)(F)C(F)(F)F)cc2C)cc1` [compound 1348], “A (100)”; to `Cc1cc(C(F)(F)C(F)(F)F)ccc1NC(=O)c1cccc(Cl)c1C(=O)NCc1ccc(Cl)cc1Cl` [compound 1349], “A (100)”.

Consider `Cc1cc(C(F)(F)C(F)(F)F)ccc1NC(=O)c1cccc(Cl)c1C(=O)NCCc1ccccc1Cl` [compound 1356], for which the “Insecticidal effect, Test Example 1” value is “A (100)”. Same read-out and setting: to `Cc1cc(C(F)(F)C(F)(F)F)ccc1NC(=O)c1c(Cl)cccc1C(=O)NC(C)c1ccccc1Cl` (centres unmarked) [compound 1363] belongs “A (100)”; to `Cc1cc(C(F)(F)C(F)(F)F)ccc1NC(=O)c1c(Cl)cccc1C(=O)NC(C)c1cccc(Cl)c1` (centres unmarked) [compound 1365], “A (100)”. As to `Cc1cc(C(F)(F)C(F)(F)F)ccc1NC(=O)c1c(Cl)cccc1C(=O)NC(C)c1ccc(Cl)cc1` (centres unmarked) [compound 1367], the “Insecticidal effect, Test Example 1” value is “A (100)”. Regarding `Cc1cc(C(F)(F)C(F)(F)F)ccc1NC(=O)c1cccc(Cl)c1C(=O)NCCOc1ccccc1Cl` [compound 1368], the “Insecticidal effect, Test Example 1” value is “A (100)”. In the case of `Cc1cc(C(F)(F)C(F)(F)F)ccc1NC(=O)c1cccc(Cl)c1C(=O)NCCOc1ccc(Cl)cc1` [compound 1372], the “Insecticidal effect, Test Example 1” value was “A (100)”. Turning to `Cc1cc(C(F)(F)C(F)(F)F)ccc1NC(=O)c1c(Cl)cccc1C(=O)NCCOc1ccc(Cl)cc1` [compound 1373], the “Insecticidal effect, Test Example 1” value was “A (100)”. Take `Cc1cc(C(F)(F)C(F)(F)F)ccc1NC(=O)c1cccc(Cl)c1C(=O)NCCOc1ccccc1` [compound 1374]: the “Insecticidal effect, Test Example 1” value is “A (100)”. On the same count and under the same terms, to `Cc1cc(C(F)(F)C(F)(F)F)ccc1NC(=O)c1cccc(Cl)c1C(=O)NCCNc1ccccc1` [compound 1376] belongs “A (100)”. For the compound `Cc1cc(C(F)(F)C(F)(F)F)ccc1NC(=O)c1ccccc1C(=O)NC(CO)c1ccccc1` (centres unmarked) [compound 1379], the “Insecticidal effect, Test Example 1” value is reported as “A (100)”. Consider `Cc1cc(C(F)(F)C(F)(F)F)ccc1NC(=O)c1c(Cl)cccc1C(=O)NCc1ccncc1` [compound 1395], for which the “Insecticidal effect, Test Example 1” value is “A (100)”.

Take `Cc1cc(C(F)(F)C(F)(F)F)ccc1NC(=O)c1ccccc1C(=O)NCC(O)Cc1ccccc1` (centres unmarked) [compound 1398]: the “Insecticidal effect, Test Example 1” value is on record as “A (100)”.

With `Cc1cc(C(F)(F)C(F)(F)F)ccc1NC(=O)c1c(I)cccc1C(=O)NCc1ccccc1` [compound 1401], the “Insecticidal effect, Test Example 1” value is listed as “A (100)”. Consider `Cc1cc(C(F)(F)C(F)(F)F)ccc1NC(=O)c1cccc(Cl)c1C(=O)NC(CO)c1ccc(-c2ccccc2)cc1` (centres unmarked) [compound 1412], for which the “Insecticidal effect, Test Example 1” value was “A (100)”.

Consider `Cc1cc(OC(F)F)ccc1NC(=O)c1cccc(Cl)c1C(=O)NCc1ccccc1` [compound 1421], for which the “Insecticidal effect, Test Example 1” value is listed as “A (100)”.

Turning to `Cc1cc(OC(F)F)ccc1NC(=O)c1cccc(Cl)c1C(=O)NCc1ccccc1Cl` [compound 1423], the “Insecticidal effect, Test Example 1” value is on record as “A (100)”.
